Experimental data from patent US9073982B2, “Targets for regulation of angiogenesis” (The University of North Carolina at Chapel Hill, priority 2008, dated 2015).
Entries after “also recorded” stand apart in the source; their conditions may differ.

Key:
SVR angiosarcoma cells = assay: SVR angiosarcoma cell tube formation assay; assay type: cell-based, mouse; details: for inhibition of SVR tube formation by sera compared to control mouse sera: sera at 1:100 dilution
Procedure: (§1) The tube formation properties of SFRP2 on MEC cells were evaluated using an endothelial cell tube formation assay. ECMATRIX (Chemicon) was thawed, diluted and solidified in a 96 well plate according to the manufactures instructions. 1×10^4 cells/well in 150 μl of DMEM (cellgro) with 10% FBS (HyClone) and a concentration range (3-3000 pM) of SFRP2 (US Biologicals) were seeded onto the matrix and returned to 37° C., 5% CO2 for 8 hours. Images were acquired using the Nikon Eclipse TS100 microscope at 4× magnification with a Nikon CoolPix 995 digital camera. Results were quantified by counting the number of branch point. To evaluate whether tacrolimus inhibits SFRP2 induced tube formation, MEC cells were treated as above with SFRP2 30 nM with and without tacrolimus (1 μM-100 uM) for 8 hours and branch points were determined as described above. To evaluate whether inhibitors of SFRP2-mediated angiogenesis would inhibit the growth of SVR tumor cells, SVR cells were treated with tacrolimus (1 μM-100 μM) or with a rabbit polyclonal antibody to SFRP-2 (H-140) (Santa Cruz Biotechnology, Santa Cruz, Calif., catalogue 4 sc-13940) in the tube formation assay.
As a further test of the contribution of SFRP2 to endothelial tube formation, it was evaluated whether loss of function of SFRP2 would inhibit SVR angiosarcoma tube formation. This was studied two different ways, first with a blocking antibody to SFRP2, and then using siRNA to SFRP2. SVR cells were plated in MATRIGEL in a tube formation assay and treated with a polyclonal antibody to SFRP2. […] After 72 h of transfection using LIPOFECTAMINE™ RNAiMAX Transfection reagent (Invitrogen) according to the manufacturer's protocol, cells were harvested and ready for Western blot analyses and tube formation assay.
Monoclonal antibodies for the epitope corresponding to AbB (AA202-AA220) were prepared. […] The angiosarcoma cells were suspended in 150 μl of antibody containing growth media for 90 different samples and control media, After 6 hours, pictures were taken and the number of branch points for each well was counted. […]

[1] = test system: SVR angiosarcoma xenografts; assay: SVR angiosarcoma xenografts in nude mice; assay type: in vivo; details: for growth of SVR angiosarcoma xenografts: nude mice
Procedure: To test the ability of tacrolimus to inhibit angiogenesis in vivo, SVR mouse angiosarcoma cells (0.5×10^6) were injected into the flank of 6-week-old nude male mice obtained from Charles River Breeding Laboratories. Treatment was initiated on the day after inoculation. Mice received 3 mg/kg/daily tacrolimus or vehicle control suspended in 20% Intralipid (Baxter Healthcare, Deerfield, Ill.) in a total volume of 0.3 ml intraperitoneally (i.p.), and were treated daily for 19 days. Serial caliper measurements of perpendicular diameters were used to calculate tumor volume using the following formula: (shortest diameter)^2×(longest diameter)×0.52. Differences in tumor volume over time were analyzed with a two way ANOVA. A P value of ≦0.05 indicated a statistically significant reduction in tumor growth of the treated group compared to the control group. […] Treatment with tacrolimus reduced mean tumor volume by 46% at day 19 (589±129 mm^3 vs 315±93 mm^3, two-way ANOVA, p=0.04, FIG. 26).
The ability of a monoclonal antibody recognizing SFRP2 to inhibit tumor growth in vivo was tested in a nude mouse assay. The SFRP2 MAb subclone 80.8.6 was first tested with SVR angiosarcoma xenografts. Six week old nude mice were injected with 1×10^6 SVR angiosarcoma cells. The day after injections treated mice received SFRP2 MAb(80.8.6) 4 mg/kg i.v. twice weekly (n=5), and controls received equal volumes of buffer. At day 14 there was a 65% decrease in tumor volume (*p=0.03, two-tailed student's t-test) (FIG. 34).

MEC cells = assay: Trypan blue uptake (cytotoxicity) in MEC cells; assay type: cell-based, mouse; details: tacrolimus-treated MEC cells
Procedure: (§2) To evaluate whether tacrolimus inhibits SFRP2 induced tube formation, MEC cells were treated as above with SFRP2 7 nM with and without tacrolimus 100 uM for 8 hours and branch points were determined as described above. To evaluate whether tacrolimus reversed established tubes, cells were incubated with SFRP2 7 nM for 8 hours and then BSA or tacrolimus 100 μM was added to SFRP2 treated cells for an additional 4 hours, and then the number of branch points were counted. […] Tacrolimus was not cytotoxic to MEC cells, as only 5% of tacrolimus-treated cells took up trypan blue dye (data not shown).

2H11 cells = assay: 2H11 endothelial MATRIGEL tube formation assay; assay type: cell-based, mouse; details: for inhibition of SFRP2 stimulated endothelial tube formation: SFRP2 stimulated 2H11 cells; for inhibition of VEGF stimulated endothelial tube formation: VEGF stimulated 2H11 cells
Source text: The ability for tacrolimus to inhibit SFRP2 and VEGF stimulated 2H11 endothelial tube formation in vitro was studied in a MATRIGEL tube formation assay.

[2] = test system: mouse endothelial cells (MEC); assay: Endothelial cell tube formation assay, MEC cells; assay type: cell-based; details: for inhibition of SFRP2 induced tube formation: SFRP2 7 nM or 30 nM, tacrolimus 1 μM-100 uM, 8 hours
Procedure: The tube formation properties of SFRP2 on mouse endothelial cells (MEC) cells were evaluated using an endothelial cell tube formation assay. ECMATRIX (Chemicon) was thawed, diluted and solidified in a 96 well plate according to the manufacturer's instructions. 1×10^4 cells/well in 150 μl of DMEM (celigro) with 10% FBS (HyClone) and a concentration range (7-7000 pM) of SFRP2 (US Biologicals) were seeded onto the matrix and returned to 37° C., 5% CO2 for 8 hours. Images were acquired using the Nikon Eclipse TS100 microscope at 4× magnification with a Nikon CoolPix 995 digital camera. Results were quantified by counting the number of branch points.
as §2, §1

[3] = test system: MMTV-neu transgenic mouse tumors; assay: MMTV-neu transgenic mouse tumor growth; assay type: in vivo
Procedure: In a second study, MMTV-neu transgenic mice were treated with tacrolimus 3 mg/kg/daily or no treatment. Treatment began when tumors were palpable and continued for 21 days. Tumor volumes were monitored with serial ultrasounds. A two-tailed T-test was used to determine the difference between growth rates of the tumors between treated and non-treated tumors.

[4] = test system: MDA-MB-231 breast cancer xenografts; assay: MDA-MB-231 breast cancer xenografts in nude mice; assay type: in vivo; details: 4 mg/kg i.v. twice weekly
Procedure: The SFRP2 MAb subclone 80.8.6 was next tested with MDA-MB-231 breast cancer xenografts. Six week old female nude mice were injected with 1×10^6 MDA-MB-231 cells. After 4 weeks, when tumors were palpable, mice received SFRP2 MAb (80.8.6) 4 mg/kg i.v. twice weekly (n=12), and controls received equal volumes of buffer. At day 8 the median tumor volume for controls was 1200 mm^3, and for SFRP2 MAb treated mice was 580 mm^3, which represents a 52% decrease in tumor volume (p=0.04, two-tailed student's t-test).

[5] = tacrolimus 3 mg/kg/daily i.p., day 19

AbC: sera from mouse immunized against SFRP2 epitope amino acids AA270-AA295 (ITSVKRWQKGQREFKRISRSIRKLQC)
inhibition of SVR tube formation by sera compared to control mouse sera (SVR angiosarcoma cells): inhibited SVR tube formation; also recorded: greatest inhibition

AbB: sera from mouse immunized against SFRP2 epitope amino acids AA202-AA220 (EITYINRDTKIILETKSKTC)
inhibition of SVR tube formation by sera compared to control mouse sera (SVR angiosarcoma cells): inhibited SVR tube formation; also recorded: greatest inhibition

C=CC[C@@H]1/C=C(\C)C[C@H](C)C[C@H](OC)[C@H]2O[C@@](O)(C(=O)C(=O)N3CCCC[C@H]3C(=O)O[C@H](/C(C)=C/[C@@H]3CC[C@@H](O)[C@H](OC)C3)[C@H](C)[C@@H](O)CC1=O)[C@H](C)C[C@@H]2OC [tacrolimus]
growth of SVR angiosarcoma xenografts [1]: effective at suppressing the growth; also recorded: inhibits the growth
signs of toxicity (diarrhea, infection, lethargy, weight loss) ([1]; tacrolimus 3 mg/kg/daily i.p., 19 days): no signs of toxicity
mean tumor volume [1, 5]: 315±93 mm^3
reduction of mean tumor volume [1, 5]: 46%
inhibition of SVR angiosarcoma tube formation (SVR angiosarcoma cells): inhibited by tacrolimus; also recorded: inhibits tube formation in SVR angiosarcoma cells
treated cells that took up trypan blue dye (MEC cells): 5%
inhibition of SFRP2 stimulated endothelial tube formation (2H11 cells): inhibits SFRP2-induced mouse endothelial cell tube formation
inhibition of SFRP2 stimulated endothelial tube formation (2H11 cells; listed as Tacrolimus): inhibited endothelial tube formation
inhibition of VEGF stimulated endothelial tube formation (2H11 cells): inhibits VEGF-induced mouse endothelial cell tube formation
inhibition of VEGF stimulated endothelial tube formation (2H11 cells; listed as Tacrolimus): inhibited endothelial tube formation
inhibition at 1 µM ([2]; Mus musculus, Endothelial cell, tacrolimus 1 μM, SFRP2 30 nM, read-out: inhibition of SFRP2 induced tube formation): 64%
reversal of established SFRP2-induced tubes ([2]; SFRP2 7 nM 8 hours, then tacrolimus 100 μM for 4 hours): reversed SFRP2-induced tube formation; also recorded: reverses SFRP2-induced mouse endothelial cell tube formation
inhibition of SFRP2 induced tube formation [2]: inhibits SFRP2-induced mouse endothelial cell tube formation; also recorded: inhibits tube formation in SFRP2-induced MEC cells
inhibition of SFRP2 induced tube formation ([2]; listed as Tacrolimus): inhibited SFRP2 induced tube formation
growth rate of MMTV-neu tumors ([3]; mouse, in vivo): inhibits the growth rate
signs of toxicity (diarrhea, infection, lethargy, weight loss) ([3]; tacrolimus 3 mg/kg/daily, 21 days): no signs of toxicity
reduction in tumor growth rate ([3]; tacrolimus 3 mg/kg/daily, day 21): 59%

B1: SFRP2 MAb (80.8.6): monoclonal antibody produced by hybridoma cell line UNC 68-80 (subclone 80.8.6), ATCC PTA-11762; VH SEQ ID NO:13, VL SEQ ID NO:15 (antibody, V domains shown)
VH: QVQLQQPGAELVQPGASVMLSCKASGFTFTRYWWHWVRQTPGRGLEWIGRIDPNSGTTRFIEKFKTKATLTVDKPSSTAYMHLSSLTSEDSAVYYCARWGPYYGYAMDYWGPGTSVTVSS
VL: QIVLTQSPAIMSASPGQKVTITCSASSSVTYMHWYQQKLGSSPKLWIYDTSRLAPGSPARFSGSGSGTSYSLTISSMETEDAASYFCHQWSTYPPTFGTGTKLEIQ
modifications: Heavy chain variable region sequence; Light chain variable region sequence
toxicity or weight loss [4]: No toxicity or weight loss
decrease in tumor volume ([4]; day 8): 52%
median tumor volume ([4]; day 8): 580 mm^3
toxicity or weight loss ([1]; 4 mg/kg i.v. twice weekly): No toxicity or weight loss
decrease in tumor volume ([1]; 4 mg/kg i.v. twice weekly, day 14): 65%
growth of SVR angiosarcoma xenografts [1]: inhibits the growth
